Test results published in US11667602B2, “Compounds and their use” (AstraZeneca AB, priority 2020, dated 2023).
Values after ≈ are worked out from the molar mass of the structure shown.

Assays:
[1] = Human Plasma Protein Binding (Test B); type: in vitro ADME; conditions: fraction unbound (fu)
Outline: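 Human plasma protein binding run per the published Wernevik et al. (2020) integrated DMPK panel protocol. Values are fraction unbound (fu, % free); repeat runs averaged arithmetically.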

[2] = Human Liver Microsomal Stability (Test C); type: in vitro ADME; conditions: human, liver microsomes
Outline: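 Human liver microsome incubation per the Wernevik et al. integrated DMPK panel protocol. Intrinsic clearance reported as CLint in μl/min/mg protein, averaged arithmetically over repeat runs.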

[3] = Human Hepatocyte Stability (Test D); type: in vitro ADME; conditions: human, cryopreserved pooled human hepatocytes (LiverPool 10-Donor), geometric mean if run multiple times
Procedure: Human Hepatocyte Stability (Test D)
The metabolic stability of compounds in human hepatocytes was assessed using the following protocol:
1. Prepare 10 mM stock solutions of compound and control compounds in appropriate solvent (DMSO). Place incubation medium (L-15 Medium) in a 37° C. water bath, and allow warming for at least 15 minutes prior to use.
2. Add 80 μL of acetonitrile to each well of the 96-well deep well plate (“Quenching plate”).
3. In a new 96-well plate, dilute the 10 mM test compounds and the control compounds to 100 μM by combining 198 μL of acetonitrile and 2 μL of 10 mM stock solution.
4. Remove a vial of cryopreserved (less than −150° C.) human hepatocytes (LiverPool™ 10-Donor Human hepatocytes obtained from Bioreclamation IVT (Product No. S01205)) from storage, ensuring that vials remain at cryogenic temperatures until thawing process ensues. As quickly as possible, thaw the cells by placing the vial in a 37° C. water bath and gently shaking the vials. Vials should remain in water bath until all ice crystals have dissolved and are no longer visible. After thawing is complete, spray vial with 70% ethanol, transfer the vial to a bio-safety cabinet.
5. Open the vial and pour the contents into the 50 mL conical tube containing thawing medium. Place the 50 mL conical tube into a centrifuge and spin at 100 g for 10 minutes (room temperature).
6. Using Cellometer® Vision, count cells and determine the viable cell density. Cells with poor viability (<80% viability) are not acceptable for use.
7. Transfer 247.5 μL of hepatocytes into each well of a 96-well cell incubation plate. Place the plate on Eppendorf Thermomixer Comfort plate shaker to allow the hepatocytes to warm for 10 minutes.
8. Add 2.5 μL of 100 μM test compound or control compounds into an incubation well containing cells to initiate the reaction.
9. Incubate the plate at 37° C. and 900 rpm on an Eppendorf Thermomixer Comfort plate shaker.
10. Centrifuge the quenching plates for 20 minutes at 4,000 rpm. Transfer 30 μL of supernatant of each compound into a 96-well analysis plate. 4 compounds are pooled together into one cassette. Then dilute the pooled sample by adding of 180 μl of pure water. All incubations are performed in singlicate.
All calculations were carried out using Microsoft Excel. Peak areas were determined from extracted ion chromatograms. In vitro intrinsic clearance (in vitro Clint, in μL/min/10^6 cells) of parent compound was determined by regression analysis of the Ln percent parent disappearance vs. time curve. The in vitro intrinsic clearance (in vitro Clint, in μL/min/10^6 cells) reported in Table 36, and was determined from the slope value using the following equation: in vitro Clint=kV/N
V=incubation volume (0.25 mL);
N=number of hepatocytes per well (0.25×10^6 cells)
Where the assay was run multiple times for the same compound, the geometric mean is reported.

[4] = Rat Hepatocyte Stability (Test E); type: in vitro ADME; conditions: rat, hepatocytes, geometric mean if run multiple times
Outline: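 Run per the published AstraZeneca-type rat hepatocyte stability protocol (Wernevik et al. panel). Values are mean intrinsic clearance, Clint in μl/min/10^6 cells; geometric mean used for repeated runs.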

Solubility (Test F) = type: physicochemical; conditions: arithmetic mean if run multiple times
Procedure: The assay was conducted according to the Solubility Assay described in pages 164-167 of Wernevik, J. et al., “A Fully Integrated Assay Panel for Early Drug Metabolism and Pharmacokinetics Profiling”, Assay and Drug Development Technologies, 2020, 18(4), 157-179. Data are reported in Table 36 as solubility ([…]. Where the assay was run multiple times for the same compound, the arithmetic mean is reported.

human RXFP1 = biological target: T1, human RXFP1 (Homo sapiens, UniProt Q9HBX9); assay: RXFP1 Hu cAMP (Test A); type: cell-based; parameters: expressed in transfected cells; host or cells: Jump-In T-REx CHO-K1 cells (ThermoFisher), induced with 10 ng/ml doxycycline for 24 h; conditions: RXFP1 Hu cAMP
T1 sequence (Q9HBX9 1-757): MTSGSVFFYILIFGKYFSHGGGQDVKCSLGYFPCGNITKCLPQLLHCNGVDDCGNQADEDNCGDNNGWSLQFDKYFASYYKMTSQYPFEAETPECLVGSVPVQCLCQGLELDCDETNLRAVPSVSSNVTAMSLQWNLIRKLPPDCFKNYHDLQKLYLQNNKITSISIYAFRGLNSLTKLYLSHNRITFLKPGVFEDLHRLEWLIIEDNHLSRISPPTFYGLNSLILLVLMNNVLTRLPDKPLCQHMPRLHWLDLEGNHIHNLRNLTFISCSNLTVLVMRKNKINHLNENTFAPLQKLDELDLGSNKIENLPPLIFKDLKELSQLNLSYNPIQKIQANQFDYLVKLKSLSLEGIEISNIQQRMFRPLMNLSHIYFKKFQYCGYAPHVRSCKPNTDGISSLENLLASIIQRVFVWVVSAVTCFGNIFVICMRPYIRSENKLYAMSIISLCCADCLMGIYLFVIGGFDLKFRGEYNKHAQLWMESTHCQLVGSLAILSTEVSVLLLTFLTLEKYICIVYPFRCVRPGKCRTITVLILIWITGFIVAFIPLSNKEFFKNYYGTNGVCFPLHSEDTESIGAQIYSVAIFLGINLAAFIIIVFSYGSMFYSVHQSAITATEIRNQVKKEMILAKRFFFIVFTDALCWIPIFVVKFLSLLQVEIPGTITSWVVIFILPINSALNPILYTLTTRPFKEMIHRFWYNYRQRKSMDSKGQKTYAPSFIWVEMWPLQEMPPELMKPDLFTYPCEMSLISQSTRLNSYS
Outline: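 Competitive HTRF cAMP readout (2 h, room temperature) in CHO-K1 cells stably expressing human RXFP1, induced with 10 ng/ml doxycycline for 24 h; IBMX 0.5 mM final.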

Row | Test B Human Plasma Protein Binding (% free) [1] [% free] | microsomal CLint [2] [µL/min/mg] | hepatocyte CLint at 1 µM [3] [µL/min/1e6 cells] | hepatocyte CLint [4] [µL/min/1e6 cells] | solubility (Solubility (Test F)) [µM] | Test A Sinf (human RXFP1) [%] | EC50 (human RXFP1; read-out: Test A EC50) [nM] | SMILES
1 | 2.5 | 44 | 3.9 | 28 | 300 (≈ 166 µg/mL) |  |  | CCc1cc(OC)c(C(=O)N[C@@H]2[C@H]3CC[C@H](C3)[C@@H]2C(=O)NCC2(C)CCC2)cc1O[C@H]1CC[C@@](C)(C(=O)O)CC1 [Example 376]
2 | 6.3 | 19 | 5.6 | 18 | > 890 |  |  | COc1cc(C#N)c(O[C@H]2CC[C@@](C)(C(=O)O)CC2)cc1C(=O)N[C@@H]1[C@H]2CC[C@H](C2)[C@@H]1C(=O)NCC1(C)CCC1 [Example 592, (1S,4s)-4-(2-cyano-4-methoxy-5-(((1S,2R,3S,4R)-3-(((1-methylcyclobutyl)methyl)carbamoyl)bicyclo[2.2.1]heptan-2-yl)carbamoyl)phenoxy)-1-methylcyclohexane-1-carboxylic acid]
3 | 3.4 | 34 | 49 | 55 | 680 (≈ 375 µg/mL) |  |  | COc1cc(C#N)c(O[C@H]2CC[C@@](C)(C(=O)O)CC2)cc1C(=O)N[C@@H]1[C@@H]2CC[C@@H](C2)[C@@H]1C(=O)NCC1(C)CCC1 [Example 388]
4 | 6 | 5.8 | 8 | 11 | 910 (≈ 491 µg/mL) |  |  | COc1cc(C#N)c(O[C@H]2CC[C@@](C)(C(=O)O)CC2)cc1C(=O)N[C@@H]1[C@@H]2CC[C@@H](C2)[C@@H]1C(=O)NCC(C)(C)C [Example 389]
5 | 0.48 | 20 | 49 | 21 | 280 (≈ 157 µg/mL) |  |  | COc1cc(Cl)c(O[C@H]2CC[C@@](C)(C(=O)O)CC2)cc1C(=O)N[C@@H]1[C@@H]2CC[C@@H](C2)[C@@H]1C(=O)NCC1(C)CCC1 [Example 410]

The next lines start with the molecule.

Row | SMILES | Test B Human Plasma Protein Binding (% free) [1] [% free] | microsomal CLint [2] [µL/min/mg] | hepatocyte CLint at 1 µM [3] [µL/min/1e6 cells] | hepatocyte CLint [4] [µL/min/1e6 cells] | solubility (Solubility (Test F)) [µM] | Test A Sinf (human RXFP1) [%] | EC50 (human RXFP1; read-out: Test A EC50) [nM]
6 | COc1cc(C)c(O[C@H]2CC[C@@](C)(C(=O)O)CC2)cc1C(=O)N[C@@H]1[C@H]2CC[C@H](C2)[C@@H]1C(=O)NCC1(C)CCC1 [Example 375] | 4.4 | 38 | 3.1 | 32 | 240 (≈ 130 µg/mL) |  | 
7 | COc1cc(F)c(O[C@H]2CC[C@@](CO)(C(=O)O)CC2)cc1C(=O)N[C@@H]1[C@H]2CC[C@H](C2)[C@@H]1C(=O)NCC1(C)CCC1 [Example 364] | 11 | < 5.1 | 6.2 | 19 | > 1000 |  | 
8 | COc1cc(F)c(O[C@H]2CC[C@@](CC#N)(C(=O)O)CC2)cc1C(=O)N[C@@H]1[C@H]2CC[C@H](C2)[C@@H]1C(=O)NCC1(C)CCC1 [Example 424, (1S,4s)-1-(Cyanomethyl)-4-(2-fluoro-4-methoxy-5-(((1S,2R,3S,4R)-3-(((1-methylcyclobutyl)methyl)carbamoyl)bicyclo[2.2.1]heptan-2-yl)carbamoyl)phenoxy)cyclohexane-1-carboxylic acid] | 6.7 | 13 | 10 | 21 | 990 (≈ 564 µg/mL) |  | 
9 | COc1cc(F)c(-c2ccc(CCC(N)(CO)CO)c(F)c2)cc1C(=O)N[C@@H]1[C@H]2CC[C@H](C2)[C@@H]1C(=O)Nc1cccc(S(=O)(=O)C(F)(F)F)c1 [Example 266, (1R,2S,3R,4S)-3-(4′-(3-Amino-4-hydroxy-3-(hydroxymethyl)butyl)-3′,6-difluoro-4-methoxy-[1,1′-biphenyl]-3-carboxamido)-N-(3-((trifluoromethyl)sulfonyl)phenyl)bicyclo[2.2.1]heptane-2-carboxamide] | <0.34 | 68 | 9.4 | 8.8 |  | 103 | 110
10 | COc1cc(F)c(O[C@H]2CC[C@@](C)(C(=O)O)CC2)cc1C(=O)N[C@@H]1[C@H]2CC[C@H](C2)[C@@H]1C(=O)N[C@H](C)C(C)(C)C [Example 36, (1S,4s)-4-(5-(((1S,2R,3S,4R)-3-(((R)-3,3-Dimethylbutan-2-yl)carbamoyl)bicyclo[2.2.1]heptan-2-yl)carbamoyl)-2-fluoro-4-methoxyphenoxy)-1-methylcyclohexane-1-carboxylic acid] | 6.9 | 33 | 5.8 | 7.2 | 22 (≈ 12 µg/mL) |  | 
11 | CC1(CNC(=O)[C@H]2[C@@H]3CC[C@@H](C3)[C@H]2NC(=O)c2cc(O[C@H]3CC[C@@](C)(C(=O)O)CC3)c(F)cc2OC(F)F)CCC1 [Example 207, (1S,4s)-4-(4-(Difluoromethoxy)-2-fluoro-5-(((1S,2R,3S,4R)-3-(((1-methylcyclobutyl)methyl)carbamoyl)bicyclo[2.2.1]heptan-2-yl)carbamoyl)phenoxy)-1-methylcyclohexane-1-carboxylic acid] | 3.5 | 34 | 26 | 10 | 560 (≈ 325 µg/mL) |  | 
12 | COc1cc(C(F)F)c(O[C@H]2CC[C@@](C)(C(=O)O)CC2)cc1C(=O)N[C@@H]1[C@H]2CC[C@H](C2)[C@@H]1C(=O)NCC1(C)CCC1 [Example 373] | 3.9 | 23 | 5.1 | 16 | 1000 (≈ 577 µg/mL) |  | 
